Reference: article PMC3375340 (Journal of Medicinal Chemistry, 2012)
Converted amounts (≈) assume the structure as drawn.

Experiments:
[1] = system: M. tuberculosis H37Rv INHr; assay: microbe, parasite or virus in culture; assay type: cell-based; settings: Mycobacterium tuberculosis
[2] = system: M. tuberculosis H37Rv RFPr; assay: microbe, parasite or virus in culture; assay type: cell-based; settings: Mycobacterium tuberculosis

CCCCCC[C@H](CN1CCC(COc2cccc(C(=NOC)c3ccc(Cl)cc3)c2)CC1)OC(N)=O [(R)-13, (R)-1-(4-((3-((4-Chlorophenyl)(methoxyimino)methyl)phenoxy)methyl)piperidin-1-yl)octan-2-yl carbamate]
MIC [1]: 1.52 µg/mL (≈ 2.87 µM) | MIC [2]: 1.51 µg/mL (≈ 2.85 µM)
